The text below walks through data of patent publication US20260325465A1, “SHP-1 INHIBITORS FOR TREATING CANCER” (MDX MANAGEMENT LLC, priority 2022, published 2026).

The nature of one data set: Study-4: adverse effects. As to conditions: TPI-1 with TLR agonists (each 50 μg), i.p. The data set is classed as in vivo, mice. On the procedure:
FIGS. 14A-14E depict that pulse-intermittent inhibition of SHP-1 (iSHP-1) combined with TLR agonists (αTLR) treating late-stage KPC pancreatic ductal adenocarcinoma. FIG. 14A depicts the treatment scheme. Mice with large KPC tumors were treated (i.p.) consecutively for three days with TPI-I plus TLR agonists (CpG, PolyIC and R848, each 50 μg). After the initial pulse treatment, an intermittent period of 9-day was given before the 2nd cycle of treatment of two days with TPI plus TLR agonists. FIG. 14B depicts the luminescent images of mice with KPC tumor during the course of treatment. FIG. 14C depicts tumor volume changes.

The subject of the next data set is STAT1 and Erk1/2. The data set is described as follows: Pulse inhibition of SHP-1, STAT1 and Erk1/2 phosphorylation (WB). The data set is classed as cell-based, murine. As to conditions: IFNγ/LPS, immediately after treatment. On the procedure: FIGS. 4A and 4B depict that pulse inhibition of SHP-1 transiently enhances proinflammatory signal transduction in macrophages. FIG. 4A: murine macrophages (bone marrow derived macrophages, or “BMDM”) were treated with TPI-1 for 15 min followed by wash to complete removal of TPI-1. At different time points after the TPI-1 treatment, macrophages were stimulated with IFNγ/LPS in the presence of alive cancer cells (1:1 ratio to BMDM) for 20 min prior to cell lysis and assaying SHP-1 activity using pNpp and WB detecting total and phosphorylated STAT1 and Erk1/2. FIG. 4B: the same setting as in FIG. 4A, except that after TPI-1 treatment, TPI-1 in medium was partially removed (50%) or without removal, followed by macrophage stimulation with IFNγ/LPS at different time points.

The next data set has as its system MC38 solid tumor. The data set is described as follows: Cytokine secretion of excised MC38 tumor cubes (ELISA). Further details: species or system murine. As to conditions: 100 nM, 24 h. The source says:
(§1) FIGS. 6A-6D depict that the inhibition of SHP-1 promotes anti-tumor effects or pro-tumor effects under different circumstances. FIG. 6A depicts that intratumoral macrophages upregulate expression of iRs (Pir-B, Siglec E, F and G, and SIRPα) along with tumor progression to late-stage large sizes. KPC pancreatic tumors of small sizes (<150 mm^3) and those grown to larger sizes (>800 mm^3) were dissociated to single cells, followed by flow cytometry analyses for cell surface protein expression on macrophages (gated F4/80+). FIG. 6B depicts that the inhibition of SHP-1 alone promotes TME immunosuppression. Excised MC38 solid tumor cubes were treated with SHP-1 inhibitor TPI-1 (100 nM) or vehicle (DMSO) in a cell culture setting. After 24 h, tumor secreting cytokines into the culture medium were assayed by ELISA.
For orientation: An ELISA detects its analyte on a solid surface through an enzyme-linked reagent.

The test system of another data set is p-STAT1 and p-Erk1/2. Nature of the data set: STAT1 and Erk1/2 phosphorylation in macrophages with cancer cell ligation. The class given is cell-based. The settings on record: IFNγ/LPS. On the procedure: FIGS. 2A-2G depict that the inhibition of SHP-1 enhances macrophage proinflammatory response, antigen presentation and phagocytosis in a tumor milieu. FIG. 2A and FIG. 2B depict that SHP-1 activity in macrophages is triggered by proinflammatory stimulation and the extracellular cancer cell ligation (“touching”) of macrophages (green bar in FIG. 2A). […] The SHP-2 inhibitor SHP099 (1 μg/ml) was used in assays. FIG. 2C depicts the inhibition of SHP-1 by TPI-1 dose-dependently recovers IFNγ/LPS-induced activation of STAT1 (p-STAT1) and Erk1/2 (p-Erk1/2) de-activated by SHP-1 (red line). FIG. 2D and FIG. 2E depict that the inhibition of SHP-1 in macrophages by TPI-1 enhances production of proinflammatory cytokines (FIG. 2D) and expression of immunogenic antigen presentation machinery (FIG. 2E) by IFNγ/LPS in a tumor milieu. […] The SHP-1 and SHP-2 inhibitors TPI-1 and SHP099, respectively, was used at 1 μg/ml in assays.
Macrophages with high SHP-1 activity in a tumor milieu diminish production of proinflammatory cytokines but produce high IL-10 (see FIG. 2D, blue bar) under stimulation of IFNγ/LPS. This reinforcement of immunosuppression was reversed by SHP-1 inhibition. […]

The test system of a further data set is macrophages. The data set is described as follows: Macrophage cytokine production under immunosuppressive or proinflammatory stimulation with cancer cell ligation. The class given is cell-based.
Excerpt: as §1
The SHP-1 activity in non-therapeutic solid tumors is low (see FIGS. 7A-7D), and this low activity inhibits immunosuppressive receptor signaling. […] In parallel experiments, the same SHP-1 inhibitors augmented macrophage responses to the M1 stimuli IFNγ and LPS and enhanced proinflammatory cytokine production.

Data set [1] can be described thus: Toxicity of pulse-intermittent iSHP-1 in tumor-bearing mice. The class given is in vivo. The settings on record: three cycles of pulse-intermittent iSHP-1 with proinflammatory agents. An excerpt: FIGS. 10A-10B depicts pulse-intermittent iSHP-1 design and treatment schemes. In preclinical tumor models, we have tested three pulsed treatment schemes, pulses-1, -2 and -3, with iSHP-1 given once, twice or three times consecutively (1× per day) at the beginning of each cycle, and an intermittent period of 2-9 days withholding iSHP-1 treatment between cycles. The combination modalities include, but are not limited to, TLR ligands, STING activator, RT, anti-PD-1/L1 immune checkpoint blockade (αPD-1/L1), inflammatory cytokines, chemotherapies and oncolytic viruses. These combination regimens were given together with SHP-1 inhibitor or following separate dosing schedules. Murine solid tumor models with a single tumor or multi-lesions (metastases) in syngeneic mice of different backgrounds were tested. These models were established by engrafting tumors in multiple locations, and iSHP-1 treatment began when a single tumor reaches ≥200 mm^3 in size or the total tumor burden ≥300 mm^3. […]
Throughout treatments, anti-tumoral efficacies (tumor volume changes and survival rates), adverse effects (body weight loss, proteinuria, anemia and clinical discomfort), gross organ toxicity and tissue inflammation due to toxicity, and the TME immune landscape changes were analyzed at different time points and at the terminal point. […]

Molecules are shown by their SMILES.

Regarding `O=C1C=CC(=O)C(c2cc(Cl)ccc2Cl)=C1` [TPI-1], the “adverse effects and body weight” value in “Study-4: adverse effects” is “minor adverse effects and transient body weight loss followed by recovery”. In addition, the “pSTAT-1 and pErk1/2” value in the data set with STAT1 and Erk1/2 is “increased pSTAT-1 and pErk1/2”. In the data set on MC38 solid tumor, the “tumor production of IL-6” value is “increased tumor production of IL-6 and IL-10”; the “tumor production of IL-10” value is “increased tumor production of IL-6 and IL-10”. In addition, the “STAT-1 and Erk1/2 phosphorylation” value with p-STAT1 and p-Erk1/2 is “dose-dependently released cancer cell-imposed inhibition”. For the same compound, the “macrophage production of IL-12 and TNFα” value with macrophages (IFNγ and LPS) was “dose-dependently augmented macrophage proinflammatory response with increased IL-12 and TNFα”. Also, the “macrophage production of IL-10 and TGFβ” value in the data set with macrophages (IL-4/13 or IL-10 stimulation) is on record as “dose-dependently augmented”. Moreover, in data set [1], the “organ damage, anemia, splenomegaly” value is listed as “did not exhibit serious lung or kidney damage, anemia or splenomegaly”.
